Results on eight molecules are retold here after paper PMC5926616 (Japanese Journal of Cancer Research : Gann, 2001).

Assay [1] concerns HCT-15. Kind of assay: XTT in vitro growth inhibition assay, parental HCT-15. The class given is cell-based, human. The settings on record: IC50 of subline divided by IC50 of parental cells; HCT-15 (parental, reference). In general terms: Tetrazolium assays rely on reduction of a dye to a coloured formazan, in cell work by metabolically active cells.
The subject of assay [2] is HCT-15/ADM1. Description: XTT in vitro growth inhibition assay, HCT-15/ADM1. The assay is classed as cell-based, human. The conditions noted are these: IC50 of HCT-15/ADM1 divided by IC50 of parental HCT-15.
Assay [3] has as its system HCT-15/ADM2. Kind of assay: XTT in vitro growth inhibition assay, HCT-15/ADM2. The conditions noted are these: IC50 of HCT-15/ADM2 divided by IC50 of parental HCT-15. The assay is classed as cell-based, human.
Assay [4] relates to HCT-15/ADM2-2. Kind of assay: XTT in vitro growth inhibition assay, HCT-15/ADM2-2. The settings on record: IC50 of HCT-15/ADM2-2 divided by IC50 of parental HCT-15. The class given is cell-based, human.
For assay [5], the system named is P-glycoprotein-ATPase. The conditions noted are these: cited from earlier work.
In assay [6] the test system is P-glycoprotein. The settings on record: cited from earlier work.
The conditions of assay [7]: in contrast to cyclosporin A; cited from earlier work.
Assay [8] concerns leukemia. The conditions noted are these: randomized trials, combination chemotherapy against leukemia; cited from earlier work.

As for `CC(=O)O[C@H]1C(=O)[C@@]2(C)[C@H]([C@H](OC(=O)c3ccccc3)[C@]3(O)C[C@H](OC(=O)[C@H](O)[C@@H](NC(=O)c4ccccc4)c4ccccc4)C(C)=C1C3(C)C)[C@]1(OC(C)=O)CO[C@@H]1C[C@@H]2O` [Taxol, paclitaxel], the Relative resistance came out at 1 in assay [1], 2.81 in assay [2], 2.63 in assay [3] and 4.81 in assay [4].

On to `COc1cccc2c1C(=O)c1c(O)c3c(c(O)c1C2=O)C[C@@](O)(C(=O)CO)C[C@@H]3O[C@H]1C[C@H](N)[C@@H](O)[C@H](C)O1` [Epirubicin], for which the Relative resistance worked out at 1 in assay [1], 1.58 in assay [2], 3.34 in assay [3] and 4.33 in assay [4].

As to `COc1cccc2c1C(=O)c1c(O)c3c(c(O)c1C2=O)C[C@@](O)(C(=O)CO)C[C@@H]3O[C@H]1C[C@H](N)[C@H](O)[C@H](C)O1` [Adriamycin], the Relative resistance turned out to be 1 in assay [1], 2.23 in assay [2], 4.40 in assay [3] and 7.77 in assay [4].

Consider `CO[C@@]12[C@H](COC(N)=O)C3=C(C(=O)C(C)=C(N)C3=O)N1C[C@@H]1N[C@@H]12` [Mitomycin C], for which the Relative resistance in assay [1] is 1; in assay [2], 0.80; in assay [3], 1.77; in assay [4] it was 0.26.

With `COc1cc([C@@H]2c3cc4c(cc3[C@@H](O[C@@H]3O[C@@H]5CO[C@@H](C)O[C@H]5[C@H](O)[C@H]3O)[C@H]3COC(=O)[C@H]23)OCO4)cc(OC)c1O` [Etoposide], the Relative resistance in assay [1] was found to be 1; in assay [2], 2.27; in assay [3] it was 2.55; in assay [4], 3.16.

In the case of `CC[C@]1(O)C[C@H]2CN(CCc3c([nH]c4ccccc34)[C@@](C(=O)OC)(c3cc4c(cc3OC)N(C=O)[C@H]3[C@@](O)(C(=O)OC)[C@H](OC(C)=O)[C@]5(CC)C=CCN6CC[C@]43[C@@H]65)C2)C1` [Vincristine], the Relative resistance came out at 1 in assay [1], 2.03 in assay [2], 2.19 in assay [3] and 2.96 in assay [4].

“[3′‐keto‐Bmt^1]‐[Val^2]‐cyclosporin [Valspodar]”: the “Inhibition of substrate-stimulated P-glycoprotein-ATPase activity” value in assay [5] is on record as “more potent than cyclosporin A”. For the same molecule, the “Effect on binding of photoactive analogues of cyclosporin to P-glycoprotein” value in assay [6] is on record as “inhibited”. The Immunosuppressive activity entry in assay [7] was “non-immunosuppressive”. Further, the “Complete remission rates or survival” value in assay [8] is listed as “failed to improve”.

Consider `O=C1c2c(O)ccc(O)c2C(=O)c2c(NCCNCCO)ccc(NCCNCCO)c21` [Mitoxantrone], for which the Relative resistance in assay [1] was 1; in assay [2] it was 1.42; in assay [3] it was 5.40; in assay [4], 3.12.
